Results: article PMC12186843, “Targeting GABAergic Hypofunction Associated with Schizophrenia: Identification of α1β2γ2GABA‑A Receptor Ligands with Neuroprotective and Antipsychotic Properties” (ACS Chemical Neuroscience, 2025)

Tests used:
PAMPA permeability assay = assay type: in vitro ADME; settings: pH 7.4, PAMPA, PBS pH 7.4, 100 μM, zolpidem tested as tartrate, read-out: Permeability Pe ± SD
Method: PAMPA. The precoated PAMPA Plate System Gentest, obtained from Corning (Tewksbury, MA, USA), was used for the permeability study. The system includes a 96-well receiver filter plate precoated with structured phospholipid layers and a matching donor microplate. Stock solutions of the test compounds and reference drugs were prepared in PBS buffer (pH 7.4) at a final concentration of 100 μM. Each compound solution (200 μL) was added to the donor wells and incubated at room temperature for 5 h. The quantity of molecules that penetrated from the donor wells to the acceptor wells through the phospholipid membrane was determined using UPLC-MS spectrometry (Waters ACQUITY TQD system with the TQ Detector, Waters, Milford, USA) with an internal standard. Permeability coefficients (Pe, cm/s) were calculated according to the formula provided by the manufacturer.

MDR1-MDCKII cell line = experiment: A–B and B–A permeability assay in MDR1-MDCKII cell line
Method: The A–B and B–A permeability assay using the MDR1-MDCKII cell line was conducted at Eurofins Discovery according to a well-established protocol.

SH-SY5Y cells = experiment: Intracellular calcium concentration after 6-OHDA (Fluo-4); assay type: cell-based, human; settings: 50 μM pretreatment 1 h, then 6-OHDA 250 μM 1 h
Method: 7 (A). Effect of 6-Hydroxydopamine (6-OHDA) on intracellular calcium concentration [Ca^2+] determined by Fluo-4 AM. After pretreatment with tested compounds (50 μM) or vehicle (0.5% DMSO, v/v) for 1 h, the cells were incubated with 6-Hydroxydopamine (6-OHDA, 250 μM) for 1 h. 6-OHDA control: cells treated with 250 μM of 6-OHDA. […]. DMSO control: cells treated with 0.5% DMSO only. Data are presented as the mean ± SD from 2–3 independent experiments. Experiments were carried on with ImageXpress Micro XLS (Molecular Devices). (B) The level of ROS generation was determined by Cell ROX dye. After pretreatment with tested compounds (50 μM) or vehicle (0.5% DMSO, v/v) for 1 h, the cells were incubated with hydrogen peroxide (H2O2, 300 μM) for 1 h. H2O2 control: cells treated with H2O2 (300 μM). DMSO control: cells treated with 0.5% DMSO only. Data are presented as the mean ± SD from 2–3 independent experiments. Experiments were carried on with the ImageXpress Micro XLS (Molecular Devices).
The SH-SY5Y human neuroblastoma cell line was maintained according to established protocols. The cells, obtained from the American Type Culture Collection (ATCC), were cultured in Dulbecco’s Modified Eagle’s Medium (DMEM, high glucose; Thermo Fisher), supplemented with 10% fetal bovine serum (Thermo Fisher), 100 IU/ml penicillin (Merck), and 100 μg/mL streptomycin (Merck). They were grown in 75 cm^2 flasks (Nunc) at 37 °C in a humidified atmosphere containing 5% CO2. For compound evaluation, SH-SY5Y cells were plated in 96-well plates (Falcon) at a density of 2 × 10^4 cells per well. The cells were allowed to adhere and grow for 24 h in an incubator set to 37 °C and 5% CO2 before starting the experiments. Stock solutions of both test and reference compounds were prepared at a concentration of 10^–2 M. A minimum of 1 mg of each compound was dissolved in dimethyl sulfoxide (DMSO). Serial dilutions were made in DMSO, then further diluted in PBS, mixed, and added to the cell culture medium.
The intracellular Ca^2+ levels were assessed using a homogeneous cell-based assay with the Fluo-4 Direct Calcium Assay Kit (Thermo Fisher). Following incubation with the tested compounds, the supernatant was discarded, and the cells were incubated with 1 μM Fluo-4/AM in FluoroBrite DMEM (Thermo Fisher) for 1 h at 37 °C. The results were expressed as a percentage relative to the control (DMSO). Fluorescence intensity was recorded using the ImageXpress Micro XLS system (Molecular Devices).

[1] = rats, i.p., 3 mg/kg, ref Mordyl, B. et al. J. Med. Chem. 2024, 67 (24), 21859–21889, cited from earlier work

Compound: Cc1ccc2nc(-c3ccc(F)cc3)c(CC(=O)N3CCCC3)n2c1.O=C(O)C(O)C(O)C(=O)O [Compound 17, 2-(4-Fluorophenyl)-6-methyl-3-(2-oxo-2-(pyrrolidin-1-yl)-ethyl)imidazo[1,2-a]pyridin-1-ium 3-carboxy-2,3-dihydroxy-propanoate]
- Papp at 5 h, 100 μM (PAMPA permeability assay): > 40 nm/s
- Substrate for P-glycoprotein (P-gp) efflux (MDR1-MDCKII cell line; MDCK-MDR1 permeability assay): not to be a substrate
- Permeability A–B (MDR1-MDCKII cell line; pH 7.4/7.4, 6 and 17 at 10 μM): 55.6 10^–6 cm/s
- Permeability B–A (MDR1-MDCKII cell line; pH 7.4/7.4, 6 and 17 at 10 μM): 29.7 10^–6 cm/s
- Reduction of intracellular calcium levels (SH-SY5Y cells): 48%
- t0.5 Plasma ([1]; n=6, plasma, terminal half life): 249 min
- AUC0→t Brain ([1]; n=6, brain): 8229 ng·min/g
- Cmax Brain ([1]; n=6, brain): 219.5 ng/g
- MRT Brain ([1]; n=6, brain): 102.5 min
- tmax Brain ([1]; n=6, brain): 5 min
- t0.5 Brain ([1]; n=6, brain, terminal half life): 653.2 min
- AUC0→t Plasma ([1]; n=6, plasma): 128271 ng·min/mL
- MRT Plasma ([1]; n=6, plasma): 50.9 min
- tmax Plasma ([1]; n=6, plasma): 5 min
